In ChEMBL document CHEMBL1909294, “Translating clinical findings into knowledge in drug safety evaluation--drug induced liver injury prediction system (DILIps)” (PLoS Comput Biol, 2011):
*1 amine or outer side, *2 acyl side, *3 side chain or, on linkers, in order; H or OH if unused. Where a SMILES comes first, the peptide text is derived from it. Bridges are numbered along the chain shown (N, C = ends). [ ]: non-standard residue; d: D form. The star is where a group is joined. hTyr(3S-OH,4S-OH,3'-OSO3H) = N[C@H](C(=O)O)[C@H](O)[C@@H](O)c1ccc(O)c(OS(=O)(=O)O)c1; Orn(4R-OH,5R-OH) = O=C([C@H](C[C@@H](O)[C@@H](O)N[*:3])N[*:1])[*:2]; Pro(3S-OH,4S-Me) = C[C@H]1CN[C@H](C(=O)O)[C@H]1O; X1 = CCCCCOc1ccc(-c2cc(-c3ccc(C(=O)*)cc3)no2)cc1; Gln(3R-OH) = NC(=O)C[C@@H](O)[C@H](N)C(=O)O; Hyp = O=C(O)[C@@H]1C[C@@H](O)CN1

Columns and labels:
Hepatotoxicity [1] = test system: Hepatotoxicity;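 on HepSE bilirubinemia: bilirubinemia hepatic side effect score drawn from the DILIps training data, a prediction system for drug-induced liver injury; call rule not given here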;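 on HepSE cholecystitis: Cholecystitis-related hepatic side effect score drawn from the DILIps (drug-induced liver injury prediction) training data set; call rule not given here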;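 on HepSE cholelithiasis: hepatic side effect score for cholelithiasis, drawn from the DILIps training data for predicting drug-induced liver injury; call rule not given here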;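 on HepSE cirrhosis: cirrhosis hepatic side effect score taken from the DILIps (drug-induced liver injury prediction) training set; call rule not given here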;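 on HepSE elevated liver function tests: hepatic side effect score for raised liver function tests, as recorded in the DILIps training set used for predicting drug-induced liver injury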; on HepSE hepatic failure: call rule not given here;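 on HepSE hepatomegaly: hepatic side effect score for hepatomegaly, taken from the training set of the DILIps drug-induced liver injury prediction system; call rule not given here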
Hepatotoxicity [2] = test system: Hepatotoxicity; remark: listed apart in the source;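 on HepSE bilirubinemia: bilirubinemia hepatic side effect score drawn from the DILIps training data, a prediction system for drug-induced liver injury; call rule not given here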;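 on HepSE cholecystitis: Cholecystitis-related hepatic side effect score drawn from the DILIps (drug-induced liver injury prediction) training data set; call rule not given here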;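 on HepSE cholelithiasis: hepatic side effect score for cholelithiasis, drawn from the DILIps training data for predicting drug-induced liver injury; call rule not given here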;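 on HepSE cirrhosis: cirrhosis hepatic side effect score taken from the DILIps (drug-induced liver injury prediction) training set; call rule not given here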;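 on HepSE elevated liver function tests: hepatic side effect score for raised liver function tests, as recorded in the DILIps training set used for predicting drug-induced liver injury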; on HepSE hepatic failure: call rule not given here;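 on HepSE hepatomegaly: hepatic side effect score for hepatomegaly, taken from the training set of the DILIps drug-induced liver injury prediction system; call rule not given here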
Hepatotoxicity [3] = test system: Hepatotoxicity; remark: listed apart in the source;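 on HepSE bilirubinemia: bilirubinemia hepatic side effect score drawn from the DILIps training data, a prediction system for drug-induced liver injury; call rule not given here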;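 on HepSE cholecystitis: Cholecystitis-related hepatic side effect score drawn from the DILIps (drug-induced liver injury prediction) training data set; call rule not given here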;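 on HepSE cholelithiasis: hepatic side effect score for cholelithiasis, drawn from the DILIps training data for predicting drug-induced liver injury; call rule not given here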;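 on HepSE cirrhosis: cirrhosis hepatic side effect score taken from the DILIps (drug-induced liver injury prediction) training set; call rule not given here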;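 on HepSE elevated liver function tests: hepatic side effect score for raised liver function tests, as recorded in the DILIps training set used for predicting drug-induced liver injury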; on HepSE hepatic failure: call rule not given here
Hepatotoxicity [4] = test system: Hepatotoxicity; remark: listed apart in the source;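 on HepSE bilirubinemia: bilirubinemia hepatic side effect score drawn from the DILIps training data, a prediction system for drug-induced liver injury; call rule not given here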;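 on HepSE cholecystitis: Cholecystitis-related hepatic side effect score drawn from the DILIps (drug-induced liver injury prediction) training data set; call rule not given here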;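 on HepSE cholelithiasis: hepatic side effect score for cholelithiasis, drawn from the DILIps training data for predicting drug-induced liver injury; call rule not given here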;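 on HepSE cirrhosis: cirrhosis hepatic side effect score taken from the DILIps (drug-induced liver injury prediction) training set; call rule not given here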;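 on HepSE elevated liver function tests: hepatic side effect score for raised liver function tests, as recorded in the DILIps training set used for predicting drug-induced liver injury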; on HepSE hepatic failure: call rule not given here
Hepatotoxicity [5] = test system: Hepatotoxicity; remark: listed apart in the source; on HepSE hepatic failure: call rule not given here
Hepatotoxicity [6] = test system: Hepatotoxicity; remark: listed apart in the source; on HepSE hepatic failure: call rule not given here
Hepatotoxicity [7] = test system: Hepatotoxicity; remark: listed apart in the source
Hepatotoxicity [8] = test system: Hepatotoxicity; remark: listed apart in the source
Hepatotoxicity [9] = test system: Hepatotoxicity; remark: listed apart in the source
Hepatotoxicity [10] = test system: Hepatotoxicity; remark: listed apart in the source
Hepatotoxicity [11] = test system: Hepatotoxicity; remark: listed apart in the source
Hepatotoxicity [12] = test system: Hepatotoxicity; remark: listed apart in the source
Hepatotoxicity [13] = test system: Hepatotoxicity; remark: listed apart in the source
Hepatotoxicity [14] = test system: Hepatotoxicity; remark: listed apart in the source

| Structure (SMILES) | HepSE_bilirubinemia (Hepatotoxicity [1]) | HepSE_cholecystitis (Hepatotoxicity [2]) | HepSE_cholelithiasis (Hepatotoxicity [3]) | HepSE_cirrhosis (Hepatotoxicity [4]) | HepSE_elevated liver function tests (Hepatotoxicity [5]) | HepSE_hepatic failure (Hepatotoxicity [6]) | HepSE_hepatic necrosis (Hepatotoxicity [7]) | HepSE_hepatitis (Hepatotoxicity [8]) | HepSE_hepatomegaly (Hepatotoxicity [9]) | HepSE_jaundice (Hepatotoxicity [10]) | HepSE_liver disease (Hepatotoxicity [11]) | HepSE_liver fatty (Hepatotoxicity [12]) | HepSE_liver function tests abnormal (Hepatotoxicity [13]) | HepSE_Combined Scores (Hepatotoxicity [14]) | other results |
| --- | --- | --- | --- | --- | --- | --- | --- | --- | --- | --- | --- | --- | --- | --- | --- |
| Cc1ncc([N+](=O)[O-])n1CCO [METRONIDAZOLE] | 0 | 0 | 0 | 0 | 0 | 0 | 0 | 1 | 0 | 0 | 0 | 0 | 0 | 1 |  |
| CC(C)(C(=O)c1cccnc1)c1cccnc1 [METYRAPONE] |  |  |  |  |  |  |  |  |  |  |  |  |  |  | HepSE_bilirubinemia (Hepatotoxicity [1]; Liver): 0; HepSE_cholecystitis (Hepatotoxicity [2]; Liver): 0; HepSE_cholelithiasis (Hepatotoxicity [3]; Liver): 0; HepSE_cirrhosis (Hepatotoxicity [4]; Liver): 0; HepSE_elevated liver function tests (Hepatotoxicity [5]; Liver): 0; HepSE_hepatic failure (Hepatotoxicity [6]; Liver): 0; HepSE_hepatic necrosis (Hepatotoxicity [7]; Liver): 0; HepSE_hepatitis (Hepatotoxicity [8]; Liver): 0; HepSE_hepatomegaly (Hepatotoxicity [9]; Liver): 0; HepSE_jaundice (Hepatotoxicity [10]; Liver): 0; HepSE_liver disease (Hepatotoxicity [11]; Liver): 0; HepSE_liver fatty (Hepatotoxicity [12]; Liver): 0; HepSE_liver function tests abnormal (Hepatotoxicity [13]; Liver): 0; HepSE_Combined Scores (Hepatotoxicity [14]; Liver): 0 |
| Cc1cccc(C)c1OCC(C)N (stereo not drawn) [MEXILETINE] |  |  |  |  |  |  |  |  |  |  |  |  |  |  | HepSE_bilirubinemia (Hepatotoxicity [1]; Liver): 0; HepSE_cholecystitis (Hepatotoxicity [2]; Liver): 0; HepSE_cholelithiasis (Hepatotoxicity [3]; Liver): 0; HepSE_cirrhosis (Hepatotoxicity [4]; Liver): 0; HepSE_elevated liver function tests (Hepatotoxicity [5]; Liver): 0; HepSE_hepatic failure (Hepatotoxicity [6]; Liver): 0; HepSE_hepatic necrosis (Hepatotoxicity [7]; Liver): 1; HepSE_hepatitis (Hepatotoxicity [8]; Liver): 1; HepSE_hepatomegaly (Hepatotoxicity [9]; Liver): 0; HepSE_jaundice (Hepatotoxicity [10]; Liver): 0; HepSE_liver disease (Hepatotoxicity [11]; Liver): 0; HepSE_liver fatty (Hepatotoxicity [12]; Liver): 0; HepSE_liver function tests abnormal (Hepatotoxicity [13]; Liver): 1; HepSE_Combined Scores (Hepatotoxicity [14]; Liver): 3 |
| CCCCCOc1ccc(-c2cc(-c3ccc(C(=O)N[C@H]4C[C@@H](O)[C@@H](O)NC(=O)[C@@H]5[C@@H](O)[C@@H](C)CN5C(=O)[C@H]([C@H](O)CC(N)=O)NC(=O)[C@H]([C@H](O)[C@@H](O)c5ccc(O)c(OS(=O)(=O)O)c5)NC(=O)[C@@H]5C[C@@H](O)CN5C(=O)[C@H]([C@@H](C)O)NC4=O)cc3)no2)cc1 [MICAFUNGIN] (X1-[Orn(4R-OH,5R-OH)]T[Hyp][hTyr(3S-OH,4S-OH,3'-OSO3H)][Gln(3R-OH)][Pro(3S-OH,4S-Me)]; lactam 1-C) | 1 | 0 | 0 | 0 | 0 | 1 | 0 | 0 | 1 | 1 | 1 | 0 | 1 | 6 |  |
| Clc1ccc(COC(Cn2ccnc2)c2ccc(Cl)cc2Cl)c(Cl)c1 (stereo not drawn) [MICONAZOLE] | 0 | 0 | 0 | 0 | 0 | 0 | 0 | 0 | 0 | 0 | 0 | 0 | 0 | 0 |  |
| Cc1ncc2n1-c1ccc(Cl)cc1C(c1ccccc1F)=NC2 [MIDAZOLAM] | 0 | 0 | 0 | 0 | 0 | 0 | 0 | 0 | 0 | 0 | 0 | 0 | 0 | 0 |  |
| COc1ccc(OC)c(C(O)CNC(=O)CN)c1 (stereo not drawn) [MIDODRINE] | 0 | 0 | 0 | 0 | 0 | 0 | 0 | 0 | 0 | 0 | 0 | 0 | 0 | 0 |  |
| CC#C[C@]1(O)CC[C@H]2[C@@H]3CCC4=CC(=O)CCC4=C3[C@@H](c3ccc(N(C)C)cc3)C[C@@]21C [MIFEPRISTONE] | 0 | 0 | 0 | 0 | 0 | 0 | 0 | 0 | 0 | 0 | 0 | 0 | 0 | 0 |  |
| OCCN1C[C@H](O)[C@@H](O)[C@H](O)[C@H]1CO [MIGLITOL] | 0 | 0 | 0 | 0 | 0 | 0 | 0 | 0 | 0 | 0 | 0 | 0 | 0 | 0 |  |
| Cc1[nH]c(=O)c(C#N)cc1-c1ccncc1 [MILRINONE] | 0 | 0 | 0 | 0 | 0 | 0 | 0 | 0 | 0 | 0 | 0 | 0 | 0 | 0 |  |
| CN(C)c1ccc(O)c2c1C[C@H]1C[C@H]3[C@H](N(C)C)C(O)=C(C(N)=O)C(=O)[C@@]3(O)C(O)=C1C2=O [MINOCYCLINE] | 1 | 0 | 0 | 0 | 0 | 1 | 0 | 1 | 0 | 1 | 0 | 0 | 0 | 4 |  |
| Nc1cc(N2CCCCC2)nc(N)[n+]1[O-] [MINOXIDIL] | 0 | 0 | 0 | 0 | 0 | 0 | 0 | 0 | 0 | 0 | 0 | 0 | 0 | 0 |  |
| CN1CCN2c3ncccc3Cc3ccccc3C2C1 (stereo not drawn) [MIRTAZAPINE] | 0 | 1 | 0 | 1 | 0 | 0 | 0 | 0 | 0 | 0 | 0 | 0 | 1 | 3 |  |
| CCCCC(C)(O)C/C=C/[C@H]1[C@H](O)CC(=O)[C@@H]1CCCCCCC(=O)OC (stereo partly drawn) [MISOPROSTOL] | 0 | 0 | 0 | 0 | 0 | 0 | 0 | 0 | 0 | 0 | 0 | 0 | 0 | 0 |  |
| Clc1ccc(C(c2ccccc2Cl)C(Cl)Cl)cc1 (stereo not drawn) [MITOTANE] | 0 | 0 | 0 | 0 | 0 | 0 | 0 | 0 | 0 | 0 | 0 | 0 | 0 | 0 |  |
| O=C1c2c(O)ccc(O)c2C(=O)c2c(NCCNCCO)ccc(NCCNCCO)c21 [MITOXANTRONE] | 0 | 0 | 0 | 0 | 0 | 0 | 0 | 1 | 0 | 1 | 0 | 0 | 0 | 2 |  |
| NC(=O)C[S+]([O-])C(c1ccccc1)c1ccccc1 (stereo not drawn) [MODAFINIL] | 0 | 0 | 0 | 0 | 0 | 0 | 0 | 0 | 0 | 0 | 0 | 0 | 0 | 0 |  |
